Experiments:
[1] = system: HIV (NL43 virus) in P4CCR5luc cells; assay: HIV screen: primary screening at 50 μM in P4CCR5luc cells (beta-gal readout); format: cell-based; settings: Human immunodeficiency virus 1, NL43, P4 cells
Protocol: HIV screen: Primary Screening of PSI compounds are tested for antiviral HIV activity at 50 μM. The cells used are P4CCR5luc cells; they are human HIV indicator cells, which are derived from Hela cells, express CD4, CXCR4, CCR5, luciferase, and a beta-gal gene under the control of HIV-1 LTR. P4CCR5 luc cells are cultivated in DMEM, 10% FBS, Penicillin, Streptomycin, and G418 at 500 μg/ml. 100 μl of P4 CCR5-luc cells are plated at 10,000 cells per well in 96 well Opaque Assay plates and incubated overnight at 37° C. The next day, the media is aspirated from the plates and replaced by 100 μl of compound freshly diluted into media at 2×50 uM, in triplicate, for 4 hours at 37° C. The cells are then infected with 100 ul NL43 virus at 5 ng of p24 per well, in the presence of 2×20 ug/ml of DEAE-Dextran for 40-42 hours. Non infected, infected no drug and AZT controls are always present in triplicate on each plate. After infection the beta-gal is quantitated using the Galacto-Star kit from Applied Biosystems using the manufacturer instructions and the luminescence measured using a Victor apparatus from Perkin-Elmer. Results are represented as percentage inhibition compare to untreated cells. The assays are performed in 2 to 3 independent experiments.

[2] = system: HIV (NL43 wild type virus) in P4 CCR5-luc cells; assay: HIV titration to determine EC50 on P4 CCR5-luc cells; format: cell-based; settings: Human immunodeficiency virus 1, NL43, read-out: HIV Inhibition P4 Cells EC50
Protocol: HIV-Titration of PSI Activity to Determine EC50 on P4 CCR-luc Cells.
P4 CCR5-luc cells are plated at 10,000 cells per well (100 μl) in 96 well Opaque Assay plates and incubated overnight at 37° C. The next day, the media is aspirated from the plates and replaced by 100 ul of compound freshly diluted into appropriate media (DMEM, 10% FBS, G418 500 μg/ml, penicillin/streptomycin) at 2× final concentrations in 5 fold dilutions, usually from 2×100 μM to 2×0.032 uM, in triplicate, for 4 hours at 37° C. The cells are then infected with 100 ul NL43 wild type or mutant virus, at 5 ng to 20 ng of p24 per well, in the presence of 2×20 ug/ml of DEAE-Dextran, for 40-42 hours. Non infected and infected no drug controls are always present in 12plicate on each plate. An AZT control is tested in parallel for each experiment. After infection, the beta-gal is quantitated in the cell lysate using the Galacto-Star kit from Applied Biosystems and the luminescence measured using a Victor apparatus from Perkin-Elmer. The EC50 (Effective Concentration) is calculated using a Microsoft® Excel® spreadsheet that calculates the concentration necessary to inhibit the 50% of the infection. The assay is performed in at least 2 independent experiments.

[3] = system: HCV replicon RNA in Huh 7 cells (clone A cells); assay: HCV replicon assay, clone A cells (replicon RNA by RT-PCR); format: cell-based
Protocol: (§1) HCV replicon RNA-containing Huh 7 cells (clone A cells; Apath, LLC, St. Louis, Mo.) were kept at exponential growth in Dulbecco's modified Eagle's medium (high glucose) containing 10% fetal bovine serum, 4 mM L-glutamine and 1 mM sodium pyruvate, 1× nonessential amino acids, and G418 (1,000iug/m1). Antiviral assays were performed in the same medium without G418. Cells were seeded in a 96-well plate at 1,500 cells per well, and test compounds were added immediately after seeding. Incubation time 4 days. At the end of the incubation step, total cellular RNA was isolated (RNeasy 96 kit; Qiagen). Replicon RNA and an internal control (TaqMan rRNA control reagents; Applied Biosystems) were amplified in a single-step multiplex RT-PCR protocol as recommended by the manufacturer. The HCV primers and probe were designed with Primer Express software (Applied Biosystems) and covered highly conserved 5′-untranslated region (UTR) sequences (sense primer: • 5′-AGCCATGGCGTTAGTA(T)GAGTGT-3′ (SEQ ID NO:4); antisense primer: • 5′-TTCCGCAGACCACTATGG-3′ (SEQ ID NO:5); and probe: • 5′-FAM-[…]-TAMRA-3′ (SEQ ID NO:6)).
(§2) To express the antiviral effectiveness of a compound, the threshold RT-PCR cycle of the test compound was subtracted from the average threshold RT-PCR cycle of the no-drug control (ΔCtHCV). […]

[4] = system: rRNA of Huh 7 clone A cells; assay: HCV replicon assay, rRNA internal control (cytotoxicity, ΔCt rRNA); format: cell-based, human
Protocol: as §1, §2

[5] = system: HCV S282T cells; assay: HCV inhibition in S282T cells; format: cell-based; settings: Hepatitis C virus, read-out: HCV Inhibition S282T Cells EC90
[6] = system: HBV in HepG2-AD38 cell line; assay: HBV AD38 assay (HBV DNA in supernatant by real time PCR); format: cell-based; settings: Hepatitis B virus; read-out: HBV Inhibition EC90
Protocol: Biological Assays HBV AD38 Assay
The materials required for the assay comprise the following:
The HepG2-AD38 cell line.
The culture medium for HepG2-AD38 comprises DMEM-F/12, 10% fetal bovine serum, 100 IU/ml/100 ug/ml of Penicillin/streptomycin, 50 μg/ml kanamycin, 0.3 μg/ml tetracycline, and 200 μg/ml G418.
The assay medium for HepG2-AD38 comprises DMEM-F/12, 10% fetal bovine serum, 1001 U/ml/100 μg/ml of penicillin/streptomycin, 50 μg/ml kanamycin, and 200 μg/ml G418 Further materials comprise Phosphate buffered saline (PBS), Biocoated 96 well plates, DNeasy 96 tissue kit (Qiagen), QIAvac 96 vacuum manifold, Micro amp optical 96 well reaction plates (Applied Biosystems), Micro amp optical caps (Applied Biosystems), Tagman Universal PCR Master Mix (Applied Biosystems), and a 7700 Sequence detector (Applied Biosystems),
The primers and probes for HBV DNA comprise the 1125 nM forward primer (GGACCCCTGCTCGTGTTACA) (SEQ ID NO:1), the 1125 nM reverse primer (GAGAGAAGTCCACCACGAGTCTAGA) (SEQ ID NO:2), and the 250 nM probe (FAM-TGTTGACAAGAATCCTCACAATACCAC) (SEQ ID NO:3).
Seed 5×10^4 cells/well in 200 μl of culture medium in a 96 well biocoated plate and incubate the plate at 37° C. with 5% CO2. […]

[7] = Toxicity, luciferase assay in P4 CCR5-luc cells; format: cell-based; settings: human, read-out: Cytotoxicity CC50, P4 Cells
Protocol: P4 CCR5-luc cells are plated at 10,000 cells per well (100 ul) in 96 well Opaque Assay plates and incubated overnight at 37° C. The next day, the media is aspirated from the plates and replaced by 200 ul of compound freshly diluted into media in 5 fold dilutions from 100 μM to 0.0062 μM. After 4 days of incubation at 37° C., the luciferase activity is measured in the cell lysate using the Bright Glow kit from Promega and the luminescence measured using a Victor apparatus from Perkin-Elmer.

[8] = MTS cytotoxicity assay, CEM; format: cell-based; settings: human, CEM (lymphoid) cells
Protocol: (§3) Human cells lines Huh 7 and HepG2 (liver), BxPC3 (pancreatic) and CEM (lymphoid) are used for the MTS assays in 96 wells plates. Drugs are freshly diluted in media at 2×100 μM, 50 μM, 25 μM, 10 μM, 5 μM, 1 μM and 50 μl is dispensed in triplicate in the plates. The wells at the periphery of the plate contain 100 ul of media only and will be the blank controls. A replicate control with no drug is always performed in each plate. 50 μl of cells are added to the plate, at 2000 cells per well for Huh 7, HepG2 and PxPC3, and 5000 cells per well for CEM cells. No cells are added at the periphery of the plate. The media used for Huh 7, HepG2 and BxPC3 cells is DMEM with 10% FBS, and Penicillin/streptomycin, and RPMI with 10% FBS, and Penicillin/streptomycin for CEM cells. After 8 days of incubation at 37° C., 20 μl of MTS dye from the CellTiter 96 Aqueous One Solution Cell Proliferation Assay kit from Promega is added to each well and the plate incubated for 2 h at 37° C. The absorbance is then read at 490 nm using the microplate reader E1800 from Biotek. The signal is calculated by subtracting the absorbance measured in the blank controls. The CC50 (Cytotoxic Concentration) value is then determined by comparing the signal obtained with the no-drug cell control with the treated cells and calculating the concentration of drug necessary to inhibit 50% of the signal in the wells treated with drugs.

[9] = MTS cytotoxicity assay, BxPC3; format: cell-based; settings: human, BxPC3 (pancreatic) cells
Protocol: as §3

[10] = MTS cytotoxicity assay, HepG2; format: cell-based; settings: human, HepG2 (liver) cells
Protocol: as §3

[11] = MTS cytotoxicity assay, Huh 7; format: cell-based; settings: human, Huh 7 (liver) cells
Protocol: as §3

[12] = Cytotoxicity in PBMC; format: cell-based

## C[C@@H]1[C@H](n2ccc(N)nc2=O)O[C@@](CO)(N=[N+]=[N-])[C@H]1O
[1]
  inhibition at 50 µM: 100%
[2]
  EC50: 0.18 µM
[3]; 50 μM, clone A cells, HCV RNA
  Screen HCV Clone A Cells −log10 at 50 μM (HCV): −1.4 log10
[3]; Hepatitis C virus, Huh-7, read-out: HCV Inhibition Clone A cells EC90
  EC90: 7.85 µM
[4]
  Screen HCV Clone A Cells −log10 at 50 μM (Rbz): −0.59 log10
[5]
  EC90: 73.1 µM
[6]
  EC90: 1.62 µM
[7]
  CC50 at 4 days: > 100 µM
[8]
  CC50 at 8 days: 400 µM
[9]
  CC50 at 8 days: 400 µM
[10]
  CC50 at 8 days: 300 µM
[11]
  CC50 at 8 days: > 100 µM
[12]
  CC50: > 100 µM
